# Laboratory results taken from US6737383B1, “Herbicidal oxadiazolidines” (priority 1999, dated 2004).
# Tests used:
# [1] = test system: wheat; experiment: Test B pre/postemergence wheat; format: in vivo, Triticum aestivum
# Method in brief: (§1)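 Herbicidal effect was estimated by eye on a ten-point control scale after plants spent twelve to sixteen days in a greenhouse following soil or foliar treatment. Foliar sprays targeted plants at one to four leaves; all doses were formulated in a non-phytotoxic solvent with surfactant.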
# [2] = test system: purple nutsedge; experiment: Test B pre/postemergence purple nutsedge; format: in vivo, Cyperus rotundus
# Method in brief: as §1
# [3] = test system: duck salad; experiment: Test B flood test duck salad; format: in vivo, Heteranthera limosa
# Method in brief: (§2)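 Read-out is a visual response score from 0 (no effect) to 10 (complete control), assigned by comparison with untreated controls. Treatment was applied at the 2-leaf stage, and plants stayed in the greenhouse for twelve to sixteen days before scoring.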
# [4] = test system: morningglory; experiment: Test B pre/postemergence morningglory; format: in vivo, Ipomoea hederacea
# Method in brief: as §1
# [5] = test system: sugar beet; experiment: Test B pre/postemergence sugar beet; format: in vivo, Beta vulgaris
# Method in brief: as §1
# [6] = test system: corn; experiment: Test B pre/postemergence corn; format: in vivo, Zea mays
# Method in brief: as §1
# [7] = test system: smallflower flatsedge; experiment: Test B flood test smallflower flatsedge; format: in vivo, Cyperus difformis
# Method in brief: as §2
# [8] = test system: rape; experiment: Test B pre/postemergence rape; format: in vivo, Brassica napus
# Method in brief: as §1
# [9] = test system: blackgrass; experiment: Test B pre/postemergence blackgrass; format: in vivo, Alopecurus myosuroides
# Method in brief: as §1
# [10] = test system: giant foxtail; experiment: Test B pre/postemergence giant foxtail; format: in vivo, Setaria faberii
# Method in brief: as §1
# [11] = test system: cocklebur; experiment: Test B pre/postemergence cocklebur; format: in vivo, Xanthium strumarium
# Method in brief: as §1
# [12] = test system: rice; experiment: Test B flood test rice; format: in vivo, Oryza sativa
# Method in brief: as §2
# [13] = test system: soybean; experiment: Test B pre/postemergence soybean; format: in vivo, Glycine max
# Method in brief: as §1
# [14] = test system: velvetleaf; experiment: Test B pre/postemergence velvetleaf; format: in vivo, Abutilon theophrasti
# Method in brief: as §1
# [15] = test system: crabgrass; experiment: Test B pre/postemergence crabgrass; format: in vivo, Digitaria sanguinalis
# Method in brief: as §1
# [16] = test system: pigweed; experiment: Test B pre/postemergence pigweed; format: in vivo, Amaranthus retroflexus
# Method in brief: as §1
# [17] = Preemergence, Rate 62 g/ha, scale of 0 to 10 where 0 is no effect and 10 is complete control
# [18] = Preemergence, Rate 250 g/ha, scale of 0 to 10 where 0 is no effect and 10 is complete control
# [19] = Preemergence, Rate 500 g/ha, scale of 0 to 10 where 0 is no effect and 10 is complete control
# [20] = Rate 125 g/ha, Postemergence, scale of 0 to 10 where 0 is no effect and 10 is complete control
# [21] = Rate 125 g/ha, Preemergence, scale of 0 to 10 where 0 is no effect and 10 is complete control
# [22] = Rate 250 g/ha, Postemergence, scale of 0 to 10 where 0 is no effect and 10 is complete control
# [23] = Rate 500 g/ha, Postemergence, scale 0 to 10, 0 no effect, 10 complete control
# [24] = Rate 62 g/ha, headed Pre-emergence (flood test species), scale 0 to 10 (0 no effect, 10 complete control)
# [25] = Rate 125 g/ha, Pre-emergence, flood test species, scale 0 to 10 where 0 is no effect and 10 is complete control
# [26] = Rate 250 g/ha, Pre-emergence, flood-test species, scale 0 to 10, 0 is no effect, 10 is complete control
# [27] = Rate 500 g/ha, Pre-emergence, flood test species, scale 0 to 10 (0 no effect, 10 complete control)
# [28] = Rate 62 g/ha, Postemergence, scale of 0 to 10 where 0 is no effect and 10 is complete control
structure (smiles),measurement,setting,value
Cc1cccc(C)c1-n1c(=O)on(C(=O)N(C(C)C)C2C=CCCC2)c1=O (stereo not shown) [Compound 273],Wheat plant response rating,[1]; [17],0
same,Wheat plant response rating,[1]; [18],0
same,"Plant response rating, Wheat",[1]; [19],0
same,Wheat plant response rating,[1]; [20],0
same,Wheat plant response rating,[1]; [21],0
same,"Plant response rating, Wheat",[1]; [22],0
same,Wheat plant response rating,[1]; [23],0
same,Nutsedge plant response rating,[2]; [18],0
same,"Plant response rating, Nutsedge",[2]; [19],0
same,Nutsedge plant response rating,[2]; [20],0
same,"Plant response rating, Nutsedge",[2]; [22],0
same,Nutsedge plant response rating,[2]; [23],0
same,Ducksalad plant response rating,[3]; [24],0
same,Ducksalad plant response rating,[3]; [25],0
same,Ducksalad plant response rating,[3]; [26],0
same,Ducksalad plant response rating,[3]; [27],0
same,Morningglory plant response rating,[4]; [17],0
same,Morningglory plant response rating,[4]; [18],0
same,"Plant response rating, Morningglory",[4]; [19],0
same,Morningglory plant response rating,[4]; [20],0
same,Morningglory plant response rating,[4]; [21],0
same,"Plant response rating, Morningglory",[4]; [22],2
same,Morningglory plant response rating,[4]; [23],3
same,Sugarbeets plant response rating,[5]; [17],0
same,Sugarbeets plant response rating,[5]; [18],6
same,"Plant response rating, Sugarbeets",[5]; [19],7
same,Sugarbeets plant response rating,[5]; [20],0
same,Sugarbeets plant response rating,[5]; [21],0
same,"Plant response rating, Sugarbeets",[5]; [22],0
same,Sugarbeets plant response rating,[5]; [23],0
same,Corn plant response rating,[6]; [17],0
same,Corn plant response rating,[6]; [18],0
same,"Plant response rating, Corn",[6]; [19],0
same,Corn plant response rating,[6]; [28],0
same,Corn plant response rating,[6]; [20],0
same,Corn plant response rating,[6]; [21],0
same,"Plant response rating, Corn",[6]; [22],0
same,Corn plant response rating,[6]; [23],0
same,S. Flatsedge plant response rating,[7]; [24],0
same,S. Flatsedge plant response rating,[7]; [25],0
same,S. Flatsedge plant response rating,[7]; [26],0
same,S. Flatsedge plant response rating,[7]; [27],0
same,Rape plant response rating,[8]; [17],0
same,Rape plant response rating,[8]; [18],0
same,"Plant response rating, Rape",[8]; [19],0
same,Rape plant response rating,[8]; [20],0
same,Rape plant response rating,[8]; [21],0
same,"Plant response rating, Rape",[8]; [22],0
same,Rape plant response rating,[8]; [23],0
same,Blackgrass plant response rating,[9]; [17],0
same,"Plant response rating, Blackgrass",[9]; [19],0
same,Blackgrass plant response rating,[9]; [28],0
same,Blackgrass plant response rating,[9]; [20],1
same,Blackgrass plant response rating,[9]; [21],0
same,"Plant response rating, Blackgrass",[9]; [22],2
same,Blackgrass plant response rating,[9]; [23],4
same,Giant foxtail plant response rating,[10]; [17],7
same,Giant foxtail plant response rating,[10]; [18],8
same,"Plant response rating, Giant foxtail",[10]; [19],9
same,Giant foxtail plant response rating,[10]; [20],0
same,Giant foxtail plant response rating,[10]; [21],8
same,"Plant response rating, Giant foxtail",[10]; [22],0
same,Giant foxtail plant response rating,[10]; [23],2
same,Cocklebur plant response rating,[11]; [17],0
same,Cocklebur plant response rating,[11]; [18],0
same,"Plant response rating, Cocklebur",[11]; [19],0
same,Cocklebur plant response rating,[11]; [28],0
same,Cocklebur plant response rating,[11]; [20],0
same,Cocklebur plant response rating,[11]; [21],0
same,"Plant response rating, Cocklebur",[11]; [22],0
same,Cocklebur plant response rating,[11]; [23],0
same,Rice plant response rating,[12]; [24],0
same,Rice plant response rating,[12]; [25],0
same,Rice plant response rating,[12]; [26],0
same,Rice plant response rating,[12]; [27],0
same,Soybean plant response rating,[13]; [17],0
same,Soybean plant response rating,[13]; [18],0
same,"Plant response rating, Soybean",[13]; [19],0
same,Soybean plant response rating,[13]; [20],3
same,Soybean plant response rating,[13]; [21],0
same,"Plant response rating, Soybean",[13]; [22],3
same,Soybean plant response rating,[13]; [23],4
same,Velvetleaf plant response rating,[14]; [17],0
same,Velvetleaf plant response rating,[14]; [18],0
same,"Plant response rating, Velvetleaf",[14]; [19],1
same,Velvetleaf plant response rating,[14]; [20],0
same,Velvetleaf plant response rating,[14]; [21],0
same,"Plant response rating, Velvetleaf",[14]; [22],0
same,Velvetleaf plant response rating,[14]; [23],2
same,Crabgrass plant response rating,[15]; [17],2
same,Crabgrass plant response rating,[15]; [18],6
same,"Plant response rating, Crabgrass",[15]; [19],9
same,Crabgrass plant response rating,[15]; [20],0
same,Crabgrass plant response rating,[15]; [21],6
same,"Plant response rating, Crabgrass",[15]; [22],1
same,Crabgrass plant response rating,[15]; [23],3
same,Redroot pigweed plant response rating,[16]; [17],0
same,Redroot pigweed plant response rating,[16]; [18],0
same,"Plant response rating, Redroot pigweed",[16]; [19],0
same,Redroot pigweed plant response rating,[16]; [20],0
same,Redroot pigweed plant response rating,[16]; [21],0
same,"Plant response rating, Redroot pigweed",[16]; [22],2
same,Redroot pigweed plant response rating,[16]; [23],4
